Measured values taken from patent US20180071281A1, “TREATING CHRONIC RHINOSINUSITIS” (Gerbe Labs Inc., priority 2016, published 2018).

What was measured:
[1] = cited from earlier work; for systemic absorption: used topically
[2] = test system: chronic rhinosinusitis; assay: Case studies: patients with chronic rhinosinusitis treated with nebulized formulation; assay type: in vivo, human; details: particularly in combination with the compositions and formulations; vancomycin in cases where MRSA is present
Excerpt: In all of the following studies, the skin testing of Example 1 was used to identify the inhalant antigen or antigens responsible for triggering systemic inflammatory symptoms and the localized inflammatory sinus symptoms. The chronic rhinosinusitis of the patients was all successfully treated. Moreover, the patients also experienced resolution of systemic inflammatory symptoms.
Each of the patients avoided additional exposure to the fungal spores that were identified by the skin test. The patients ostia was dilated, and the formulation was administered with a nebulizer. Additionally, systemic anti-fungal medication directed toward the specific fungi was administered for 4-6 weeks, followed by intermittent nebulization with mometasone and 2% mupirocin powder, which has both anti-fungal and anti-bacterial properties. These treatments were administered every other day to every third day for several months with C-reactive protein (CRP} levels checked every 4-6 weeks to monitor change.
Patient 1 is a retired nurse who presented with chronic fatigue, chronic headaches, facial pain, and a sleep disorder characterized by Rapid Eye Movement (REM) sleep deprivation. The patient was a two pack/day smoker. […] The patient was treated with a formulation of 125 mg tobramycin, […]

[3] = test system: gram negative and gram positive organisms; details: cited from earlier work
[4] = test system: S. aureus; assay: Culture from Patient 7, sensitivity of bacteria; assay type: cell-based; details: Patient 7 culture
Excerpt: The patient underwent the standard workup for CRS, sleep disorder, and nasal obstruction, plus our diagnostic skin test and sinus CT scan.

SMILES | safety ([1]; topical, nasal cavity and sinuses, approved for children under the age of 3) | systemic absorption [1] | effectiveness of the antibiotic [2] | oral absorption ([1]; orally) | activity against gram negative and gram positive organisms [3] | sensitivity of cultured S. aureus [4]
C[C@@H]1C[C@H]2[C@@H]3CCC4=CC(=O)C=C[C@]4(C)[C@@]3(Cl)[C@@H](O)C[C@]2(C)[C@@]1(OC(=O)c1ccco1)C(=O)CCl [Mometasone furoate] | very safe | very little systemic absorption |  |  |  | 
CN[C@H](CC(C)C)C(=O)N[C@H]1C(=O)N[C@@H](CC(N)=O)C(=O)N[C@H]2C(=O)N[C@H]3C(=O)N[C@H](C(=O)N[C@H](C(=O)O)c4cc(O)cc(O)c4-c4cc3ccc4O)[C@H](O)c3ccc(c(Cl)c3)Oc3cc2cc(c3O[C@@H]2O[C@H](CO)[C@@H](O)[C@H](O)[C@H]2O[C@H]2C[C@](C)(N)[C@H](O)[C@H](C)O2)Oc2ccc(cc2Cl)[C@H]1O [vancomycin] |  |  | highly effective |  |  | 
NC[C@H]1O[C@H](O[C@H]2[C@H](O)[C@@H](O[C@H]3O[C@H](CO)[C@@H](O)[C@H](N)[C@H]3O)[C@H](N)C[C@@H]2N)[C@H](N)C[C@@H]1O [tobramycin] |  | not absorbed systemically | highly effective | very, very poorly absorbed | excellent activity | sensitive
